Columns and labels:
[1] = Caco-2 homogenate S9 stability; assay type: in vitro ADME; conditions: Caco-2 S9 (0.5 mg protein per mL), prodrug 5 μM, 37° C.
Description: (§1) The stability of propofol prodrugs were evaluated in one or more in vitro systems using a variety of tissue preparations following methods known in the art. Tissues were obtained from commercial sources (e.g., Pel-Freez Biologicals, Rogers, Ark., or GenTest Corporation, Woburn, Mass.). Experimental conditions used for the in vitro studies are described in Table 1 below. Each preparation was incubated with test compound at 37° C. for one hour. Aliquots (50 μL) were removed at 0, 30, and 60 min and quenched with 0.1% trifluoroacetic acid in acetonitrile. Samples were then centrifuged and analyzed by LC/MS/MS (see Examples 59 and 60 below for method details). Stability of drug conjugates towards specific enzymes (e.g., peptidases, etc.) were also assessed in vitro by incubation with the purified enzyme:
Caco-2 Homogenate S9 Stability: Caco-2 cells were grown for 21 days prior to harvesting. Culture medium was removed and cell monolayers were rinsed and scraped off into ice-cold 10 mM sodium phosphate/0.15 M potassium chloride, pH 7.4. Cells were lysed by sonication at 4° C. using a probe sonicator. Lysed cells were then transferred into 1.5 mL centrifuge vials and centrifuged at 9000 g for 20 min at 4° C. The resulting supernatant (Caco-2 cell homogenate S9 fraction) was aliquoted into 0.5 mL vials and stored at −80° C. until used.
For stability studies, prodrug (5 μM) was incubated in Caco-2 homogenate S9 fraction (0.5 mg protein per mL) for 60 min at 37° C. Concentrations of intact prodrug and released propofol were determined at zero time and 60 minutes using LC/MS/MS.

[2] = Enzymatic cleavage of prodrugs in vitro, human liver S9; assay type: in vitro ADME; conditions: Human Liver S9 (0.5 mg/mL), substrate 2.0 μM, NADPH, 37° C.
Description: as §1, with “enzyme: […]” for “enzyme:”

[3] = Enzymatic cleavage of prodrugs in vitro, human plasma; assay type: in vitro ADME; conditions: substrate 2.0 μM, 37° C.
Description: as §1, with “enzyme: […]” for “enzyme:”

[4] = tested on: pancreatin; test: Pancreatin stability; assay type: in vitro ADME, porcine; conditions: 1% (w/v) pancreatin, pH 7.5, conjugate 5 μM, 37° C.
Description: as §1
Pancreatin Stability: Stability studies were conducted by incubating conjugate (5 μM) with 1% (w/v) pancreatin (Sigma, P-1625, from porcine pancreas) in 0.025 M Tris buffer containing 0.5 M NaCl (pH 7.5) at 37° C. for 60 min. The reaction was stopped by addition of 2 volumes of methanol. After centrifugation at 14,000 rpm for 10 min, the supernatant was removed and analyzed by LC/MS/MS.

[5] = Enzymatic cleavage of prodrugs in vitro, rat plasma; assay type: in vitro ADME; conditions: substrate 2.0 μM, 37° C.
Description: as §1, with “enzyme: […]” for “enzyme:”

[6] = Enzymatic cleavage of prodrugs in vitro, rat liver S9; assay type: in vitro ADME; conditions: Rat Liver S9 (0.5 mg/mL), substrate 2.0 μM, NADPH, 37° C.
Description: as §1, with “enzyme: […]” for “enzyme:”

[7] = rats; oral dosing; cited from earlier work
[8] = in vivo; conditions: male, Sprague-Dawley, rat, plasma, oral, 25 mg per kg body weight
Description: Propofol was administered as an intravenous bolus injection or by oral gavage to groups of four to six adult male Sprague-Dawley rats (weight approx 250 g) as solutions in PEG400, at doses of 10 mg per kg body weight (I.V.) or 25 mg per kg body weight (oral). Animals were fasted overnight before the study and for 4 hours post-dosing. Blood samples (1.0 mL) were obtained via a jugular vein cannula at intervals over 24 hours after oral dosing. Blood was quenched immediately using acetonitrile with 1% formic acid and then was frozen at −80° C. until analyzed.
Concentrations of propofol in plasma were determined using an API 4000 LC/MS/MS instrument equipped with an Agilent 1100 binary pump and an Agilent autosampler. The column was a Phenomenex Hydro-RP 4.6*50 mm column operating at room temperature. The mobile phases were 2 mM aqueous ammonium acetate (A) and 95% acetonitrile with 5 mM ammonium acetate (B). The gradient condition was: 5% B for 1 min, increasing to 90% B in 2.5 min and maintained for 2 min. 20 μL of sample was injected. A Turbo-IonSpray source was used, and propofol was detected in negative ion mode in Q1 at m/z=177. The peaks were integrated using Analyst 1.2 quantitation software.

| Compound | % of Propofol Released from Propofol Prodrugs after 60 min. [1] [%] | % of Propofol Released from Propofol Prodrugs after 60 min. [2] [%] | % of Propofol Released from Propofol Prodrugs after 60 min. [3] [%] | % of Propofol Released from Propofol Prodrugs after 60 min. [4] [%] | % of Propofol Released from Propofol Prodrugs after 60 min. [5] [%] | % of Propofol Released from Propofol Prodrugs after 60 min. [6] [%] | administered drug undergoing first pass metabolism [7] | bioavailability [8] [%] |
| --- | --- | --- | --- | --- | --- | --- | --- | --- |
| CC(C)c1cccc(C(C)C)c1OC(=O)C[C@H](NC(=O)[C@@H](N)Cc1ccc(O)cc1)C(=O)O [Compound 122, H-Tyr-Asp(OPropofol)-OH] | 0 | 6 | 0 | 10 | 2 | 9 | – | – |
| H-Asp-Asp(OCH2OPropofol)-OH [Compound 220] | 49 | 0 | 1 | 6 | – | – | – | – |
| CC(C)c1cccc(C(C)C)c1O [Propofol, 2,6-diisopropylphenol] | – | – | – | – | – | – | approximately 90% | 0.23 |
| H-Gly-Tyr-OPropofol [Compound 192] | 41 | 60 | 15 | 0 | 15 | 60 | – | – |
| CC(C)c1cccc(C(C)C)c1OC(=O)C[C@H](NC(=O)[C@H](C)N)C(=O)O [Compound 107, H-Ala-Asp(OPropofol)-OH] | 4 | 5 | 1 | 7 | 3 | 6 | – | – |
| CSCC[C@H](N)C(=O)N[C@@H](CC(=O)Oc1c(C(C)C)cccc1C(C)C)C(=O)O [Compound 121, H-Met-Asp(OPropofol)-OH] | 0 | 0 | 3 | 0 | 7 | 0 | – | – |
| CC(C)c1cccc(C(C)C)c1OC(=O)OC[C@H](NC(=O)[C@H](C)N)C(=O)O [Compound 161, H-Ala-Ser(β-OC(O)OPropofol)-OH] | 20 | 14 | 2 | 8 | 30 | 8 | – | – |
| CC(C)c1cccc(C(C)C)c1OC(=O)CC[C@H](NC(=O)[C@@H](N)CC(N)=O)C(=O)O [Compound 124, H-Asn-Glu(OPropofol)-OH] | 0 | 0 | 2 | 4 | 65 | 0 | – | – |
| CC(C)c1cccc(C(C)C)c1OC(=O)CC[C@H](N)C(=O)N[C@@H](C)C(=O)O [Compound 138, H-Glu(OPropofol)-Ala-OH] | 3 | 0 | 44 | 9 | 50 | 0 | – | – |
